Data: US5726162A (priority 1996, dated 1998)

Tests used:
[1] = system: Magnaporthe grisea (Pyricularia oryzae); assay: whole plant or invertebrate; type: in vivo, Magnaporthe grisea (Pyricularia oryzae) on M201 rice plants; settings: for pest or weed control at 200 ppm: Pyricularia oryzae, 144 h, read-out: % Control RB
fungal inoculum = assay: organism not typed; type: cell-based; settings: for inhibition at 50 ppm / inhibition at 100 ppm / inhibition at 5 ppm / inhibition at 1 ppm / inhibition at 10 ppm: read-out: % growth inhibition
fungal mycelium = assay: organism not typed; type: cell-based; settings: read-out: % growth inhibition

In the case of “5-chloro-1-(2-pentyn-1-yl)-2-quinolinone [Compound 149]”, the “% Control RB” value ([1]; 200 ppm, protectant) is reported as 100% and the “% growth inhibition” value (fungal inoculum) is reported as 51.5%.

`O=C1CCC(c2ccc(Cl)cc2)=NN1c1ccccc1` [Compound 14] was tested, and the pest or weed control at 200 ppm [1] was 0% and the inhibition at 50 ppm (fungal inoculum) was 100%.

With `CC#CC(C)N1N=C(c2ccc(Cl)cc2)CCC1=O` (stereo not shown) [Compound 22] the pest or weed control at 200 ppm [1] was 75% and the inhibition at 100 ppm (fungal inoculum) was 99.7%.

`CC#CCN1N=C(c2ccc(Cl)c(Cl)c2)CCC1=O` [Compound 23] showed a pest or weed control at 200 ppm [1] of 50% and an inhibition at 5 ppm (fungal inoculum) of 100%.

For `O=C1CCC(c2ccc(Cl)cc2)=NN1CC1CC1` [Compound 25], the pest or weed control at 200 ppm [1] was 50% and the inhibition at 50 ppm (fungal inoculum) was 100%.

With `CC#CCN1N=C(c2ccc(Cl)cc2)C(C)CC1=O` (stereo not shown) [Compound 26, 6-(4-chlorophenyl)-5-methyl-2-(2'-butynyl)-4,5-dihydropyridazinone] the pest or weed control at 200 ppm [1] was 95% and the inhibition at 50 ppm (fungal inoculum) was 96.3%.

`CC#CCN1N=C(c2ccc(Cl)cc2)CC(C)C1=O` (stereo not shown) [Compound 27] gave a pest or weed control at 200 ppm [1] of 0% and an inhibition at 50 ppm (fungal inoculum) of 100%.

In the case of `CCC#CCN1N=C(c2ccc(Cl)c(Cl)c2)CCC1=O` [Compound 28, 6-(3,4-dichlorophenyl)-2-(2'-pentynyl)-4,5-dihydropyridazinone], the pest or weed control at 200 ppm [1] is reported as 95% and the inhibition at 1 ppm (fungal inoculum) is reported as 100%.

Work on `CCCC#CCN1N=C(c2ccc(Cl)cc2)CCC1=O` [Compound 29] yielded a pest or weed control at 200 ppm [1] of 95% and an inhibition at 1 ppm (fungal inoculum) of 86.1%.

Work on `CC#CCN1N=C(c2ccccc2)CC(c2ccccc2)C1=O` (stereo not shown) [Compound 30] yielded an inhibition at 50 ppm (fungal inoculum) of 41.2%.

`CC#CCN1N=C(c2ccc(Br)cc2)CCC1=O` [Compound 31] gave a pest or weed control at 200 ppm [1] of 90% and an inhibition at 5 ppm (fungal inoculum) of 92.4%.

`CC(C)=CCN1N=C(c2ccc(Cl)cc2)CCC1=O` [Compound 32] was tested, and the pest or weed control at 200 ppm [1] was 0% and the inhibition at 100 ppm (fungal inoculum) was 100%.

Work on `CC#CCN1N=C(c2ccc(Oc3ccccc3)cc2)CCC1=O` [Compound 33] yielded a pest or weed control at 200 ppm [1] of 0% and an inhibition at 100 ppm (fungal inoculum) of 27.6%.

With `N#CCN1N=C(c2ccc(Cl)cc2)CCC1=O` [Compound 35] the pest or weed control at 200 ppm [1] was 75% and the inhibition at 50 ppm (fungal inoculum) was 85%.

With `O=C1CCC(c2ccc(Cl)cc2)=NN1Cc1cccs1` [Compound 36, 6-(4-chlorophenyl)-2-(2'-thienylmethyl)-4,5-dihydropyridazinone] the pest or weed control at 200 ppm [1] was 90% and the inhibition at 50 ppm (fungal inoculum) was 100%.

Compound `CC#CCN1N=C(c2cccc(Cl)c2)CCC1=O` [Compound 37, 6-(3-chlorophenyl)-2-(2'-butynyl)-4,5-dihydropyridazinone] has a pest or weed control at 200 ppm [1] of 90% and an inhibition at 100 ppm (fungal inoculum) of 100%.

For `CC#CCN1N=C(c2cc(Cl)cc(Cl)c2)CCC1=O` [Compound 38], the pest or weed control at 200 ppm [1] was 75% and the inhibition at 100 ppm (fungal inoculum) was 75.2%.

For `CC#CCN1N=C(c2ccc(Cl)c([N+](=O)[O-])c2)CCC1=O` [Compound 39], the pest or weed control at 200 ppm [1] was 0% and the inhibition at 50 ppm (fungal inoculum) was 94.6%.

`CCC#CCN1N=C(c2ccc(Cl)c([N+](=O)[O-])c2)CCC1=O` [Compound 40] gave a pest or weed control at 200 ppm [1] of 0% and an inhibition at 5 ppm (fungal inoculum) of 95.7%.

For `CCC#CCN1N=C(c2ccc(C(F)(F)F)cc2)CCC1=O` [Compound 41], the pest or weed control at 200 ppm [1] was 0% and the inhibition at 10 ppm (fungal inoculum) was 89.2%.

`CC#CCN1N=C(c2ccc(C(F)(F)F)cc2)CCC1=O` [Compound 42] was tested, and the inhibition at 10 ppm (fungal inoculum) was 91.7%.

For `CCC#CCN1N=C(c2cc(Cl)c(C)c(Cl)c2Cl)CCC1=O` [Compound 43], the pest or weed control at 200 ppm [1] was 0% and the inhibition at 10 ppm (fungal inoculum) was 22.3%.

Compound `CCC#CCN1N=C(c2cc(Cl)c(C)c(Cl)c2)CCC1=O` [Compound 44] has an inhibition at 5 ppm (fungal inoculum) of 87%.

In the case of `C=C(C)C#CCN1N=C(c2ccc(Cl)cc2)CCC1=O` [Compound 45], the pest or weed control at 200 ppm [1] is reported as 0% and the inhibition at 10 ppm (fungal inoculum) is reported as 100%.

Compound `CC(C)(C)C#CCN1N=C(c2ccc(Cl)cc2)CCC1=O` [Compound 46] has a pest or weed control at 200 ppm [1] of 0% and an inhibition at 100 ppm (fungal inoculum) of 100%.

With `CC(O)C#CCN1N=C(c2ccc(Cl)cc2)CCC1=O` (stereo not shown) [Compound 47, 6-(4-chlorophenyl)-2-(4'hydroxy-2'-pentynyl)-4,5-dihydropyridazinone] the pest or weed control at 200 ppm [1] was 0% and the inhibition at 50 ppm (fungal inoculum) was 100%.

`COC(C)C#CCN1N=C(c2ccc(Cl)cc2)CCC1=O` (stereo not shown) [Compound 48, 6-(4-chlorophenyl)-2-(4'methoxy-2'-pentynyl)-4,5-dihydropyridazinone] gave a pest or weed control at 200 ppm [1] of 90% and an inhibition at 50 ppm (fungal inoculum) of 100%.

In the case of `CC(=O)OC(C)C#CCN1N=C(c2ccc(Cl)cc2)CCC1=O` (stereo not shown) [Compound 49, 6-(4-chlorophenyl)-2-(4'acetoxy-2'-pentynyl)-4,5-dihydropyridazinone], the pest or weed control at 200 ppm [1] is reported as 90% and the inhibition at 50 ppm (fungal inoculum) is reported as 100%.

Compound `O=C1CCC(c2ccc(Cl)cc2)=NN1CC#CCCO` [Compound 50] has a pest or weed control at 200 ppm [1] of 0% and an inhibition at 50 ppm (fungal inoculum) of 100%.

`O=C1CCC(c2ccc(Cl)cc2)=NN1CC#CCCF` [Compound 51, 6-(4-chlorophenyl)-2-(5'-fluoro-2'-pentynyl)-4,5-dihydropyridazinone] showed a pest or weed control at 200 ppm [1] of 100% and an inhibition at 50 ppm (fungal inoculum) of 100%.

Work on `C=C=CN1N=C(c2ccc(Cl)cc2)CCC1=O` [Compound 52] yielded a pest or weed control at 200 ppm [1] of 0% and an inhibition at 50 ppm (fungal inoculum) of 93.7%.

In the case of `CC(F)C#CCN1N=C(c2ccc(Cl)cc2)CCC1=O` (stereo not shown) [Compound 53], the pest or weed control at 200 ppm [1] is reported as 100% and the inhibition at 50 ppm (fungal inoculum) is reported as 100%.

`COC(=O)C#CCN1N=C(c2ccc(Cl)cc2)CCC1=O` [Compound 55] was tested, and the pest or weed control at 200 ppm [1] was 0% and the inhibition at 50 ppm (fungal inoculum) was 100%.

In the case of `CCC#CCN1N=C(c2ccc(C(C)(C)C)cc2)CCC1=O` [Compound 57], the pest or weed control at 200 ppm [1] is reported as 0% and the inhibition at 100 ppm (fungal inoculum) is reported as 95.7%.

Compound `CC#CCN1N=C(c2ccc(CC)cc2)CCC1=O` [Compound 58] has a pest or weed control at 200 ppm [1] of 0% and an inhibition at 10 ppm (fungal inoculum) of 39.8%.

For `CCC#CCN1N=C(c2ccc(CC)cc2)CCC1=O` [Compound 59], the pest or weed control at 200 ppm [1] was 0% and the inhibition at 10 ppm (fungal inoculum) was 100%.

Work on `O=C1CCC(c2ccc(Cl)cc2)=NN1CC#CI` [Compound 60] yielded a pest or weed control at 200 ppm [1] of 50% and an inhibition at 10 ppm (fungal inoculum) of 100%.

In the case of `CCC#CCN1N=C(c2ccc(SC)cc2)CCC1=O` [Compound 61], the pest or weed control at 200 ppm [1] is reported as 90% and the inhibition at 10 ppm (fungal inoculum) is reported as 95.3%.

`CCC#CCN1N=C(c2ccc(Cl)c(C)c2)CCC1=O` [Compound 62] showed a pest or weed control at 200 ppm [1] of 99% and an inhibition at 1 ppm (fungal inoculum) of 100%.

With `O=C1CCC(c2ccc(Cl)cc2)=NN1CC#Cc1cccs1` [Compound 67] the inhibition at 5 ppm (fungal inoculum) was 83.6%.

`O=C1CCC(c2ccc(Cl)cc2)=NN1CC#Cc1ccc(Cl)cc1` [Compound 68] gave an inhibition at 5 ppm (fungal inoculum) of 10.4%.

Work on `O=C1CCC(c2ccc(Cl)cc2)=NN1CC=CBr` [Compound 69] yielded an inhibition at 50 ppm (fungal inoculum) of 100%.

`CCCCCCCC#CCN1N=C(c2ccc(Cl)cc2)CCC1=O` [Compound 85] gave a pest or weed control at 200 ppm [1] of 0% and an inhibition at 100 ppm (fungal mycelium) of 100%.

Work on `C[Si](C)(C)C#CCN1N=C(c2ccc(Cl)cc2)CCC1=O` [Compound 86] yielded a pest or weed control at 200 ppm [1] of 0% and an inhibition at 100 ppm (fungal mycelium) of 80%.

Compound `CCOC(C#CCN1N=C(c2ccc(Cl)cc2)CCC1=O)OCC` [Compound 87, 6-(4-chlorophenyl)-2-(4'-aldehydo-2'-butynyl)-4,5-dihydropyridazinone, diethyl acetal] has a pest or weed control at 200 ppm [1] of 75% and an inhibition at 100 ppm (fungal mycelium) of 100%.

Work on `O=CC#CCN1N=C(c2ccc(Cl)cc2)CCC1=O` [Compound 88, 6-(4-chlorophenyl)-2-(4-aldehydo-2'-butynyl)-4,5-dihydropyridazinone] yielded a pest or weed control at 200 ppm [1] of 0% and an inhibition at 100 ppm (fungal mycelium) of 80%.

`CCC#CCN1N=C(c2ccc(Br)cc2)CCC1=O` [Compound 91] was tested, and the pest or weed control at 200 ppm [1] was 90% and the inhibition at 1 ppm (fungal mycelium) was 100%.

For `C#CC#CCN1N=C(c2ccc(Cl)cc2)CCC1=O` [Compound 93, 6-(4-chlorophenyl)-2-(2',4'-pentadiynyl)-4,5-dihydropyridazinone], the pest or weed control at 200 ppm [1] was 0% and the inhibition at 0.5 ppm (fungal mycelium) was 100%.

In the case of `O=C1CCC(c2ccc(Cl)cc2)=NN1CC#CC1CCCCC1` [Compound 94], the pest or weed control at 200 ppm [1] is reported as 0% and the inhibition at 10 ppm (fungal mycelium) is reported as 22.2%.

With `O=C1CCC(c2ccc(Cl)cc2)=NN1CC#CCC1CCCCC1` [Compound 95] the pest or weed control at 200 ppm [1] was 0% and the inhibition at 10 ppm (fungal mycelium) was 22.2%.

For `CCCCCC#CCN1N=C(c2ccc(Cl)cc2)CCC1=O` [Compound 96], the pest or weed control at 200 ppm [1] was 0% and the inhibition at 10 ppm (fungal mycelium) was 94.5%.

`CCC#CCN1N=C(c2ccc(Cl)cc2OC)CCC1=O` [Compound 99] gave a pest or weed control at 200 ppm [1] of 0% and an inhibition at 1 ppm (fungal mycelium) of 100%.

`CCC#CCN1N=C(c2ccc(Cl)cc2)C(F)(F)C(F)(F)C1=O` [Compound 106] was tested, and the pest or weed control at 200 ppm [1] was 0% and the inhibition at 50 ppm (fungal mycelium) was 81%.

`C#CCn1nc(-c2ccc(Cl)cc2)ccc1=O` [Compound 118] was tested, and the pest or weed control at 200 ppm [1] was 0% and the inhibition at 200 ppm (fungal mycelium) was 100%.

In the case of `CCC#CCn1nc(-c2ccc(Cl)cc2)c(F)c(F)c1=O` [Compound 122, 6-(4-chlorophenyl)-4,5-difluoro-2-(2'-pentynyl)-pyridazinone], the pest or weed control at 200 ppm [1] is reported as 0% and the inhibition at 100 ppm (fungal mycelium) is reported as 84.6%.

In the case of `CCC#CCn1nc(-c2ccc(Cl)cc2)c(F)cc1=O` [Compound 123], the pest or weed control at 200 ppm [1] is reported as 99% and the inhibition at 100 ppm (fungal mycelium) is reported as 100%.

`C#CC#CCn1nc(-c2ccc(Cl)cc2)ccc1=O` [Compound 125] gave a pest or weed control at 200 ppm [1] of 0% and an inhibition at 0.5 ppm (fungal mycelium) of 89.5%.

With `CC#CCN1N=C(c2ccncc2)CCC1=O` [Compound 133] the pest or weed control at 200 ppm [1] was 0% and the inhibition at 200 ppm (fungal mycelium) was 67.4%.

`CCC#CCN1N=C2c3ccc(Cl)cc3CC2CC1=O` (stereo not shown) [Compound 143, 7-chloro-2,4,4a,5-tetrahydro-2-(2-pentyn-1-yl)-indeno[1,2-c]-pyridazin-3-one] showed a pest or weed control at 200 ppm [1] of 99% and an inhibition at 1 ppm (fungal mycelium) of 100%.

`CCC#CCN1N=C(c2cc3ccccc3s2)CCC1=O` [Compound 144] gave an inhibition at 1 ppm (fungal inoculum) of 100%.

Compound `CCC#CCn1nc(-c2cc3ccccc3s2)ccc1=O` [Compound 147] has an inhibition at 50 ppm (fungal inoculum) of 98.1%.

`CCC#CCSc1ccc(-c2ccc(Cl)cc2)nn1` [Compound 152, 6-(4-chlorophenyl)-3-(2-pentyn-1-thio)-pyridazine] showed a pest or weed control at 200 ppm [1] of 0% and an inhibition at 10 ppm (fungal mycelium) of 18.2%.

`CCC#CCN1N=C(c2ccc(Cl)cc2)CC=C1OC` [Compound 158, 6-(4-chlorophenyl)-3-methoxy-2-(2'-pentyn-1-yl)-2,5-dihydropyridazine] was tested, and the pest or weed control at 200 ppm [1] was 0% and the inhibition at 10 ppm (fungal mycelium) was 100%.
